Measurements from publication PMC6534257, “Leishmania infantum arginase: biochemical characterization and inhibition by naturally occurring phenolic substances” (Journal of Enzyme Inhibition and Medicinal Chemistry, 2019).
≈ marks a conversion by molar mass, not a printed value. Where “and” joins values, the source holds several entries; their conditions need not be identical. Equal entries are not always repeated. Entries after “also recorded” stand apart in the source; their conditions may differ. Where two headings read alike, the source gives them in different places. Each block holds one molecule with its values, some of them ahead of it.

How the values were obtained:
[1] = test system: RAW 264.7 macrophages; assay: Cytotoxicity in RAW 264.7 macrophages (MTT); format: cell-based; conditions: 48 h
Method: (§1) RAW 264.7 macrophages were cultured in polystyrene culture flasks containing DMEM medium supplemented with 10% FBS at 37 °C and 5% CO2 atmosphere. For cytotoxic evaluation, 48 h cultured cells were harvested, washed with culture medium, and distributed into 96-well culture plates at 10^5 cells/well concentration. The cells were allowed to adhere for 2 h prior to the addition of increasing inhibitor concentrations (31–1000 µg/mL). Treated cell cultures were incubated for 48 h under the same experimental conditions. After this period, cell viability was determined by colorimetric assay using MTT solution (5 mg/mL) as an indicator. The 50% cytotoxic concentration (CC50) was calculated by analysing the dose-response curves generated from the data.

[2] = Cytotoxicity in RAW 264.7 macrophages (MTT); format: cell-based; conditions: mouse, read-out: RAW 264.7 CC50±SE
Method: as §1

[3] = test system: L. infantum-infected RAW 264.7 macrophages; assay: Nitric oxide production by infected macrophages (Griess reaction); format: cell-based; conditions: for effect on NO production by infected macrophages (in words): 48 h treatment; for increase in nitrite levels in comparison to the control: 48 h
Method: (§2) The intracellular anti-amastigote activity was performed according to previously described procedures[31] with some modifications. Initially, RAW 264.7 macrophages were distributed in 96-well plates and, after adherence (incubation for 2 h), cells were washed twice with phosphate buffer saline (PBS, pH 7.2). Then, the adherent cells were infected with promastigote forms of L. infantum at the stationary phase of growth in a proportion of 10 parasites/macrophage. After 4 h of interaction at 37 °C and 5% CO2 atmosphere, free parasites were washed away with PBS and infected macrophages were incubated for another 24 h to allow differentiation into amastigotes. After this time, infected cells were treated for 48 h with increasing concentrations of the selected inhibitor. Subsequently, the culture supernatant was collected for evaluation of nitric oxide production using the Griess reaction. Cells were washed with PBS, then Schneider’s medium supplemented with 5% FBS was added and the plate was incubated at 26 °C for 72 h. The parasite survival was estimated by viability of differentiated promastigote forms recovered from the cultures using MTT (5 mg/mL). The results were expressed as the percentage of viability in relation to that obtained for the control (100%). The IC50 for amastigote forms was calculated from the dose-response curves generated from the data.
In order to determine if ARGLi inhibitors were capable of modulating the host cell response, RAW 264.7 macrophages were infected with promastigote forms of L. infantum and treated with different concentrations of inhibitors for 48 h. After treatment, NO production was measured. […] This increase is similar to that observed for the reference drug Fungizone® (Figure 5(B)). The effect of caffeic acid on NO production may be a result of macrophage arginase inhibition and consequent oxidation of accumulated L-arginine by inducible NO synthase (iNOS).
Figure 5. Nitric oxide production by L. infantum-infected RAW 264.7 macrophages treated with different concentrations of ARGLi inhibitors. (A) Treatment with 3.1–200 μg/mL of rosmarinic acid (black), caffeic acid (light gray), and catechin (dark gray). (B) Treatment with 0.062–0.5 μg/mL of the reference drug fungizone. Control (white) represents the production of nitric oxide by infected and untreated macrophages. Nitrite concentration was measured by the Griess reaction and data represent mean ± SE of two independent experiments.

[4] = test system: L. infantum promastigotes; assay: Inhibition of L. infantum promastigotes growth (resazurin); format: cell-based, Leishmania infantum; conditions: for Promastigotes IC50±SE / IC50: 96 h, 26 °C, resazurin; for SI PRO (selectivity index CC50/IC50, promastigotes): CC50 RAW 264.7 / IC50 promastigotes; for IC50: Leishmania infantum, read-out: Promastigotes IC50±SE
Method: The parasite growth inhibition assays were performed on 96-well microplates, where the selected ARGLi inhibitors were previously diluted (1–200 μg/mL). Subsequently, promastigote forms of L. infantum collected in late logarithmic phase (96 h) were added to microplates at the final concentration of 10^6 parasites/mL. Microplates were incubated at 26 °C for 96 h. After the incubation period, parasites viability was determined using 0.005% resazurin[30]. The 50% inhibitory concentration (IC50) was determined from the dose-response curves generated from the data.

[5] = test system: L. infantum intracellular amastigotes; assay: Intracellular anti-amastigote activity in infected RAW 264.7 macrophages; format: cell-based, Leishmania infantum; conditions: for SI AMA (selectivity index CC50/IC50, intracellular amastigotes): CC50 RAW 264.7 / IC50 intracellular amastigotes; for IC50: Leishmania infantum, RAW264.7, 48 h, read-out: Intracellular amastigotes IC50±SE
Method: as §2

[6] = test system: L. amazonensis promastigotes; conditions: cited from earlier work
[7] = test system: Leishmania infantum arginase (ARGLi); assay: ARGLi inhibition by phenolic substances (urea production); format: biochemical; conditions: 100 µM substance, 50 mM L-arginine, pH 9.5, 37 °C, 5 min
[8] = test system: L. amazonensis arginase; conditions: cited from earlier work; for inhibition of L. amazonensis arginase activity: final concentration of 20 μM ref 13; for IC50: read-out: IC50 against L. amazonensis arginase; for effect on L. amazonensis arginase (in words): phenolics without catechol group ref 15
[9] = test system: axenic amastigote forms of L. donovani; design: method as in PMID 16569852; conditions: cited from earlier work
[10] = test system: bovine hepatic arginase; design: method as in PMID 27776374; conditions: cited from earlier work; for percentage of inhibition of bovine hepatic arginase: 100 μM ref 37
[11] = test system: ARGLi; conditions: read-out: Km for L-arginine; 1 to 50 mM L-arginine, pH 9.5, 37 °C
Method: ARGLi (0.2 µg/mL) was incubated with L-arginine at concentrations ranging from 1 to 50 mM in 50 mM CHES buffer (pH 9.5) at 37 °C for 5 min. Vmax and Km values were determined by the analysis of the initial velocity versus substrate concentration curve using the Michaelis–Menten equation in Graph Prism 6.

[12] = test system: BALB/c mice peritoneal macrophages; conditions: cited from earlier work
[13] = test system: intracellular amastigotes of L. amazonensis; design: method as in PMID 24906989; conditions: cited from earlier work
[14] = test system: L. amazonensis; conditions: cited from earlier work; for reduction of lesion size and parasite burden (in words): compared with reference drug Glucantime ref 42; for mice death or loss of body weight (in words): treated BALB/c mice ref 42
[15] = infected RAW 264.7, 48 h treatment

- Promastigotes IC50±SE [4]: 114.8 ± 14.65 µg/mL
- IC50 [4]: 115 µg/mL and 395 µM
- IC50 [5, 15]: 83.2 µg/mL and 287 µM
- Intracellular amastigotes IC50±SE [5, 15]: 83.28 ± 10.6 µg/mL
- percentage of inhibition of ARGLi activity [7]: 49.02 ± 14.92%
Compound: Oc1cc(O)c2c(c1)O[C@H](c1ccc(O)c(O)c1)[C@@H](O)C2 [Catechin, catechin, reference compound]
- RAW 264.7 CC50±SE [1]: 256.98 ± 0.64 µg/mL
- CC50 at 48 h ([2]; RAW 264.7 macrophages): 257 µg/mL and 885 µM
- effect on NO production by infected macrophages (in words) [3]: did not affect NO production
- SI PRO (selectivity index CC50/IC50, promastigotes) [4]: 2.23
- SI AMA (selectivity index CC50/IC50, intracellular amastigotes) [5]: 3.08
- IC50 for L. amazonensis promastigotes ([6]; catechin isolated from Stryphnodendron obovatum stem bark ref 47): 43.2 ± 2.1 µg/mL

Compound: Oc1cc(O)c2c(c1)O[C@H](c1ccc(O)c(O)c1)[C@H](O)C2 [(−)-epicatechin]
- inhibition of L. amazonensis arginase activity [8]: more than 50%

Compound: O=c1c(O)c(-c2ccc(O)c(O)c2)oc2cc(O)ccc12 [fisetin]
- IC50 [8]: 1.4 ± 0.3 µM

- IC50 [4]: > 400 µg/mL and > 1 mM
- percentage of inhibition of ARGLi activity [7]: more than 50%
Compound: COc1ccc(/C=C/c2cc(O)cc(O[C@@H]3O[C@H](CO)[C@@H](O)[C@H](O)[C@H]3O)c2)cc1O [Rhaponticin, rhaponticin]
- CC50 at 48 h ([2]; RAW 264.7 macrophages): 825 µg/mL and 1.96 mM
- antileishmanial activity against promastigotes (in words) ([4]; highest concentration tested): did not inhibit promastigote growth at the highest concentration tested

Compound: O=c1cc(-c2ccc(O)c(O)c2)oc2c([C@@H]3O[C@H](CO)[C@@H](O)[C@H](O)[C@H]3O)c(O)cc(O)c12 [orientin]
- IC50 [8]: 16 ± 2 µM

Compound: O=c1cc(-c2ccc(O)cc2)oc2cc(O)cc(O)c12 [apigenin]
- effect on L. amazonensis arginase (in words) [8]: little effect

- Promastigotes IC50±SE [4]: 263.2 ± 3.87 µg/mL
- IC50 [4]: 259 µg/mL and 832 µM
- percentage of inhibition of ARGLi activity [7]: ~56%
- percentage of inhibition of ARGLi activity ([7]; listed as rhamnetin): more than 50%
Compound: COc1cc(O)c2c(=O)c(O)c(-c3ccc(O)c(O)c3)oc2c1 [Rhamnetin, rhamnetin]
- CC50 at 48 h ([2]; RAW 264.7 macrophages): > 1000 µg/mL and > 3 mM
- IC50 axenic amastigote forms of L. donovani [9]: 4.6 µg/mL

Compound: O=c1c(O)c(-c2ccc(O)cc2)oc2cc(O)cc(O)c12 [kaempferol, reference compound]
- IC50 against L. donovani [9]: 2.9 µg/mL (≈ 10.1 µM)
- IC50 [8]: 50 µM

Compound: O=c1c(O)c(-c2ccc(O)c(O)c2)oc2cc(O)cc(O)c12 [Quercetin, quercetin, reference compound]
- percentage of inhibition of bovine hepatic arginase [10]: 64.4 ± 2.5%
- IC50 [10]: 31.2 µM
- IC50 against L. donovani [9]: 1 µg/mL (≈ 3.31 µM)
- IC50 [8]: 4.3 µM
- percentage of inhibition of ARGLi activity [7]: 67.05 ± 10.36%

Compound: O=c1cc(-c2ccc(O)c(O)c2)oc2cc(O)cc(O)c12 [luteolin]
- IC50 [8]: 9 ± 1 µM

Compound: COc1cc(-c2oc3cc(O)cc(O)c3c(=O)c2O)ccc1O [Isorhamnetin, isorhamnetin]
- CC50 at 48 h [2]: > 1000 µg/mL and > 3 mM
- Promastigotes IC50±SE [4]: 258.7 ± 9.50 µg/mL
- IC50 [4]: 263 µg/mL and 818 µM
- IC50 axenic amastigote forms of L. donovani [9]: 3.8 µg/mL

Compound: O=c1c(O[C@@H]2O[C@H](CO)[C@@H](O)[C@H](O)[C@H]2O)c(-c2ccc(O)c(O)c2)oc2cc(O)cc(O)c12 [isoquercitrin]
- inhibition of L. amazonensis arginase activity [8]: more than 50%

Compound: N=C(N)NCCC[C@H](N)C(=O)O [L-arginine]
- Km [11]: 5.1 ± 1.1 mM

Compound: O=C(O)/C=C/c1ccc(O)c(O)c1 [Caffeic acid, caffeic acid]
- CC50 at 48 h ([2]; RAW 264.7 macrophages): 220 µg/mL and 1.22 mM
- increase in nitrite levels in comparison to the control ([3]; 100 µg/mL): 234.6%
- increase in nitrite levels in comparison to the control ([3]; 200 µg/mL): 311.5%
- effect on NO production by infected macrophages (in words) [3]: significantly increased nitric oxide production; also recorded: significantly increased NO production
- percentage of inhibition of bovine hepatic arginase [10]: 61.3 ± 4.1%
- IC50 [10]: 86.7 µM
- SI PRO (selectivity index CC50/IC50, promastigotes) [4]: 20.05
- IC50 [4]: 11 µg/mL and 60.8 µM
- SI AMA (selectivity index CC50/IC50, intracellular amastigotes) [5]: 55.69
- IC50 [5, 15]: 3.95 µg/mL and 21.9 µM
- CC50 for BALB/c mice peritoneal macrophages [12]: 32.5 ± 2.0 µg/mL
- IC50 against L. amazonensis promastigote forms [6]: 0.9 ± 0.2 µg/mL (≈ 5 µM)
- IC50 for intracellular amastigotes of L. amazonensis [13]: 2.9 ± 0.3 µg/mL
- reduction of lesion size and parasite burden (in words) [14]: more effective in reducing lesion size and parasite burden
- mice death or loss of body weight (in words) [14]: did not lead to mice death or significant loss of body weight

Compound: O=c1cc(-c2ccc(O)cc2)oc2cc(O)c([C@@H]3O[C@H](CO)[C@@H](O)[C@H](O)[C@H]3O)c(O)c12 [isovitexin]
- effect on L. amazonensis arginase (in words) [8]: little effect

Compound: O=c1cc(-c2ccc(O)cc2)oc2c([C@@H]3O[C@H](CO)[C@@H](O)[C@H](O)[C@H]3O)c(O)cc(O)c12 [vitexin]
- effect on L. amazonensis arginase (in words) [8]: little effect

Compound: Oc1cc(O)c2c(c1)O[C@H](c1ccc(O)c(O)c1)[C@@H](O)C2 [(+)-catechin]
- inhibition of L. amazonensis arginase activity [8]: more than 50%

Compound: O=c1cc(-c2ccc(O)c(O)c2)oc2cc(O)c([C@@H]3O[C@H](CO)[C@@H](O)[C@H](O)[C@H]3O)c(O)c12 [isoorientin]
- IC50 [8]: 9 ± 1 µM

Compound: O=C(/C=C/c1ccc(O)c(O)c1)O[C@H](Cc1ccc(O)c(O)c1)C(=O)O [Rosmarinic acid, rosmarinic acid]
- CC50 at 48 h [2]: 177 µg/mL and 491 µM
- effect on NO production by infected macrophages (in words) [3]: did not affect NO production
- SI PRO (selectivity index CC50/IC50, promastigotes) [4]: 8.56
- IC50 [4]: 20.6 µg/mL and 57.3 µM
- SI AMA (selectivity index CC50/IC50, intracellular amastigotes) [5]: 61.79
- IC50 [5, 15]: 2.86 µg/mL and 7.9 µM
- CC50 for BALB/c mice peritoneal macrophages [12]: 33.5 ± 1.4 µg/mL
- IC50 against L. amazonensis promastigote forms [6]: 0.2 ± 0.1 µg/mL (≈ 0.555 µM)
- IC50 for intracellular amastigotes of L. amazonensis [13]: 1.7 ± 0.4 µg/mL
- reduction of lesion size and parasite burden (in words) [14]: more effective in reducing lesion size and parasite burden
- mice death or loss of body weight (in words) [14]: did not lead to mice death or significant loss of body weight

Compound: O=c1c(O)c(-c2ccccc2)oc2cc(O)cc(O)c12 [galangin]
- IC50 [8]: 100 µM

Compound: O=C(/C=C/c1ccc(O)c(O)c1)O[C@@H]1C[C@](O)(C(=O)O)C[C@@H](O)[C@H]1O [Chlorogenic acid, chlorogenic acid]
- inhibition of L. amazonensis arginase activity [8]: more than 50%
